Assay results as given in patent JPH0240324A, “キサントシリンxモノメチルエーテルを含有する駆虫剤” (Meiji Seika Kaisha Ltd, priority 1988, dated 1990).

Test system: chicken roundworm [鶏回虫(^5earidia galli)]
Experiment: Anthelmintic test: single oral dose to chickens infected with chicken roundworm; worm expulsion rate over 7 days
Assay type: in vivo, chicken roundworm (^5earidia galli)
Settings: for worm expulsion rate (mean): single oral dose (gelatin capsule), n = 3, 7 days, untreated control 0%

[C-]#[N+]C(=Cc1ccc(O)cc1)C(=Cc1ccc(OC)cc1)[N+]#[C-] [キサントシリンXモノメチルエーテル, 1(p−ヒドロキシフェニル)−2、3−ジイソシフノー4−(p−メトキシフェニル)−ブタ−1,3−ツエン]
worm expulsion rate (mean) (5 mg/kg): 8%
worm expulsion rate (mean) (10 mg/kg): 69.7%
worm expulsion rate (mean) (20 mg/kg, completely expelled): 100%
anthelmintic effect (doses of 10 mg/kg to 20 mg/kg, single oral dose): 確実な駆虫効果が確認された
time after dosing within which most worms were expelled (most of the medicated groups, single oral dose 5-20 mg/kg): ≤ 2 days
